Data on nine molecules can be found in US6130342A, “CYP2D fluorescent assay reagents” (Gentest Corporation, priority 1999, dated 2000).

Data set [1] deals with T1, CYP2D6 (Homo sapiens, UniProt P10635). In words: biochemical.
The subject of data set [2] is other human cytochromes P450. To be noted: Crespi et al. 1997; cited from earlier work.
Data set [3] relates to CYP2D6. The settings on record: Crespi et al. 1997; cited from earlier work.
The target in data set [4] is T1, CYP2D6. Briefly: CYP2D6 specificity in human liver microsomes with and without quinidine. Also on record: purchased GENTEST Corporation P217; host or cells: baculovirus/insect cell (SUPERSOMES). The format is biochemical. To be noted: for pmole Product with quinidine: 5 uM quinidine; for pmole Product with quinidine / pmole Product: 5.0 uM compound I, 1.0 mg/ml HLM; for pmole Product: without quinidine. Here is the method: Human liver microsomes (HLM) contain several drug (xenobiotic) metabolizing cytochromes P450. When HLM are used as an enzyme source, it is critical that the probe biotransformation be specifically catalyzed by the enzyme of interest.
After incubation, 100 ul of the reaction was added to 1.9 ml of 100 mM Tris (pH 9) and the fluorescence was determined with excitation at 390 nm and emission at 460 nm in a spectrofluorometer. The activity was quantitated by comparing to a standard curve of 3-[2-(diethylamino)ethyl]-7-hydroxy-4-methylcoumarin hydrochloride (Table III): […]
(In general: Liver microsomes are vesicles of endoplasmic reticulum, rich in cytochrome P450 enzymes.)

Data set [5] relates to panel of human P450 enzymes. Briefly: Selectivity in a panel of cDNA-expressed P450 enzymes (dealkylation). The format is biochemical. To be noted: FIGS. 1, 2, and 3. Here is the method:
The selectivity of various P450 isoforms for dealkylation of compounds Ia, Ib and Ic was examined using a panel of commercially available human cDNA-expressed enzymes. A substrate that is selective for a single P450 isoform (substrate is catalytically turned over by a single P450 isoform) is a desirable trait in that its activity may be examined within a heterogeneous mixture of enzymes, for example, in human liver microsomes.
Example Compounds Ia, Ib and Ic. Compounds Ia, Ib and Ic were incubated as described in the examples (1) above except that the enzyme source consisted of one each of several different commercially available, baculovirus/insect cell expressed human cytochrome P450 enzymes (SUPERSOME®, GENTEST Corporation).

Data set [6] addresses T1, CYP2D6. In words: Enzyme kinetics with cDNA-expressed CYP2D6 (fluorometric). It counts as biochemical. Also on record: purchased GENTEST Corporation P217; host or cells: baculovirus/insect cell (SUPERSOMES). Here is the method: (§1) The evaluation of compounds of Formula I were initially performed by measuring the kinetics of turnover using cDNA-expressed CYP2D6. Vmax and Km values are important for the optimization of the assay conditions and for setting the parameters for inhibition experiments. […] However, compounds Ib and Ic, contain the 4-trifluoromethyl group (R4) which shifts the fluorescent properties of these molecules to longer wavelengths.
(§2) Example Compound Ia. […] The substrate, compound Ia, was prepared in pH 7.4 potassium phosphate buffer (0.1 M). […] The final cofactor concentrations were 0.0082 mM NADP, 0.41 mM glucose-6-phosphate and 0.2 U/ml glucose-6-phosphate dehydrogenase. Final incubation volume was 0.2 ml. […] The activity was quantified by comparing to a standard curve of 3-[2-(N,N-diethylamino)ethyl]-7-hydroxy-4-methylcoumarin hydrochloride. Apparent Km and Vmax values were calculated by non-linear kinetics using SigmaPlot 4.0 software.
(§3) Example Compounds Ib and Ic. The following procedure applies to compounds Ib and Ic as substrates. […] The substrates, Ib and Ic, were prepared in acetonitrile. […] Final incubation volume was 0.2 ml. […] The enzyme activity was quantified by comparing to a standard curve of 3-[2-(N, N-diethyl-N-methylammonium)ethyl]-7-hydroxy-4-trifluoromethylcoumarin iodide (compound IIb) when assaying for metabolism of Ib or 3-[2-(diethylamino)ethyl]-7-hydroxy-4-trifluoromethyl coumarin (compound IIc) when assaying for metabolism of Ic. Apparent Km and Vmax values were calculated by non-linear kinetics using SigmaPlot 4.0 software.

The test system of data set [7] is CYP2D6. To be noted: Kupfer et al. 1984; cited from earlier work.
Substrate in data set [8]: CCOc1ccc2cc(C#N)c(=O)oc2c1
In words: Enzyme kinetics with cDNA-expressed CYP2D6 (fluorometric). The format is biochemical. To be noted: cDNA-expressed human CYP2D6, 37° C., pH 7.4.

Substrate in data set [9]: CC[N+](C)(CC)CCc1c(C(F)(F)F)c2ccc(OC)cc2oc1=O
The data set is described as above. The format is biochemical. The settings on record: cDNA-expressed human CYP2D6, 37° C., pH 7.4. The protocol:
as §1, §2, §3

Substrate in data set [10]: CC[N+](C)(CC)CCc1c(C)c2ccc(OC)cc2oc1=O
The data set is described as above. The format is biochemical. The settings on record: cDNA-expressed human CYP2D6, 37° C., pH 7.4. Here is the method: as §1, §2, §3

Substrate in data set [11]: CCN(CC)CCc1c(C(F)(F)F)c2ccc(OC)cc2oc1=O
The description is as above. It counts as biochemical. The settings on record: cDNA-expressed human CYP2D6, 37° C., pH 7.4. The protocol:
as §1, §2, §3

For orientation: IC50 means the concentration that inhibits the measured activity by half. As usually defined, the kcat is the number of substrate molecules converted per active site and unit of time at saturation. Usually Km stands for the substrate concentration at which the rate is half of its maximum.

Several values for one entry are separate records, joined by “and”; a condition that tells them apart may be missing. Identical values can stand only once.

`CCc1cccc2cc(C(O)CNC(C)(C)C)oc12` (centres unmarked) [Bufuralol]: the IC50 on CYP2D6 [1] is 27 µM and 17 µM and 23.3 µM and 104 µM.
In the case of `CCOc1ccc2cc(C#N)c(=O)oc2c1` [CEC, 3-cyano-7-ethoxycoumarin], in data set [2], the “metabolism by other human cytochromes P450” value is reported as “significantly metabolized by other human cytochromes P450” and the specificity of substrate entry was “poor specificity”. For the same molecule, the enzymatic turnover entry with CYP2D6 [3] is “low enzymatic turnover”.
As for `CC[N+](C)(CC)CCc1c(C)c2ccc(OC)cc2oc1=O` [Compound Ia, 3-[2-(N,N-diethyl-N-methylammonium)ethyl]-7-methoxy-4-methylcoumarin], the “pmole Product with quinidine” value at CYP2D6 [4] (0 min) was 0 pmol; at CYP2D6 [4] (5 min), 0 pmol; at CYP2D6 [4] (10 min), 0 pmol; on CYP2D6 [4] (15 min) it was -0.7 pmol. Besides, the “pmole Product” value at CYP2D6 [4] (0 min) came to 0 pmol; at CYP2D6 [4] (5 min), 3.3 pmol; on CYP2D6 [4] (10 min) it was 6.3 pmol; at CYP2D6 [4] (15 min) it was 8.5 pmol. Besides, on CYP2D6 [4] (human liver microsomes, quinidine inhibition), the “measurable metabolism / CYP2D6 specificity” value is “exclusively due to CYP2D6”. The “catalytic selectivity for dealkylation” value in [5] is recorded as “selective for CYP2D6”. For the same molecule, the catalytic turnover result at CYP2D6 [6] is on record as “highest catalytic turnover”.
Take `CC[N+](C)(CC)CCc1c(C(F)(F)F)c2ccc(OC)cc2oc1=O` [Compound Ib, 3-[2-(N,N-diethyl-N-methylammonium)ethyl]-7-methoxy-4-trifluoromethylcoumarin iodide]: the “catalytic selectivity for dealkylation” value in [5] was “also substrates for other human P450 enzymes”. The catalytic turnover entry at CYP2D6 [6] is “lower catalytic turnover compared to compound Ia”.
The corresponding values for `CCN(CC)CCc1c(C(F)(F)F)c2ccc(OC)cc2oc1=O` [Compound Ic, 3-[2-(diethylamino)ethyl]-7-methoxy-4-trifluoromethylcoumarin] are “also substrates for other human P450 enzymes” and “lower catalytic turnover compared to compound Ia”.
With `N=C(N)N1CCc2ccccc2C1` [Debrisoquine], the IC50 on CYP2D6 [1] was 29 µM and 20 µM and 10.6 µM and 105 µM.
Consider `COc1ccc2c(c1)[C@]13CCCC[C@@H]1[C@H](C2)N(C)CC3` [Dextromethorphan], for which the “metabolism by CYP2D6” value in the data set with CYP2D6 [7] is “O-demethylated by CYP2D6”.
As for `NCCC(Oc1ccc(C(F)(F)F)cc1)c1ccccc1` (centres unmarked) [Norfluoxetine], the IC50 at CYP2D6 [1] was 8.4 µM and 1.1 µM.

B1: CYP2D6 (Homo sapiens) (protein)
chain: MGLEALVPLAVIVAIFLLLVDLMHRRQRWAARYPPGPLPLPGLGNLLHVDFQNTPYCFDQLRRRFGDVFSLQLAWTPVVVLNGLAAVREALVTHGEDTADRPPVPITQILGFGPRSQGVFLARYGPAWREQRRFSVSTLRNLGLGKKSLEQWVTEEAACLCAAFANHSGRPFRPNGLLDKAVSNVIASLTCGRRFEYDDPRFLRLLDLAQEGLKEESGFLREVLNAVPVLLHIPALAGKVLRFQKAFLTQLDELLTEHRMTWDPAQPPRDLTEAFLAEMEKAKGNPESSFNDENLRIVVADLFSAGMVTTSTTLAWGLLLMILHPDVQRRVQQEIDDVIGQVRRPEMGDQAHMPYTTAVIHEVQRFGDIVPLGVTHMTSRDIEVQGFRIPKGTTLITNLSSVLKDEAVWEKPFRFHPEHFLDAQGHFVKPEAFLPFSAGRRACLGEPLARMELFLFFTSLLQHFSFSVPTGQPRPSHHGVFAFLVSPSPYELCAVPR
notes: purchased GENTEST Corporation P217; host or cells: baculovirus/insect cell (SUPERSOMES)
Take B1: the kcat was 0.000283 s⁻¹ in data set [8], 0.00267 s⁻¹ in data set [9], 0.0167 s⁻¹ in data set [10] and 0.0033 s⁻¹ in data set [11]. Moreover, the values for the Km in data set [8] (other: apparent Km), in data set [9] (other: apparent Km) and in data set [11] (other: apparent Km) were 67 µM, 0.8 µM and 3.3 µM, respectively.
